Experimental data reported in article PMC3128788 (Nuclear medicine and biology, 2011).
Marks after values point to notes of the source that are not given here.

Format: in vivo, male Sprague Dawley rats
Conditions: for Blood %ID/gram, 5 min CycA / Bone %ID/gram, 5 min CycA / Fat %ID/gram, 5 min CycA / Kidney %ID/gram, 5 min CycA / Liver %ID/gram, 5 min CycA / Lung %ID/gram, 5 min CycA / Muscle %ID/gram, 5 min CycA / Total brain %ID/gram, 5 min CycA / Blood %ID/gram, 30 min CycA / Bone %ID/gram, 30 min CycA / Fat %ID/gram, 30 min CycA / Kidney %ID/gram, 30 min CycA / Liver %ID/gram, 30 min CycA / Lung %ID/gram, 30 min CycA / Muscle %ID/gram, 30 min CycA / Total brain %ID/gram, 30 min CycA: CycA […] mg/kg i.v. 30 min before tracer; for Blood %ID/gram, 30 min CycA / Bone %ID/gram, 30 min CycA / Fat %ID/gram, 30 min CycA / Kidney %ID/gram, 30 min CycA / Liver %ID/gram, 30 min CycA / Lung %ID/gram, 30 min CycA / Muscle %ID/gram, 30 min CycA / Total brain %ID/gram, 30 min CycA / Blood %ID/gram, 30 min No Rx / Bone %ID/gram, 30 min No Rx / Fat %ID/gram, 30 min No Rx / Kidney %ID/gram, 30 min No Rx / Liver %ID/gram, 30 min No Rx / Lung %ID/gram, 30 min No Rx / Muscle %ID/gram, 30 min No Rx / Total brain %ID/gram, 30 min No Rx: 30 min post-injection; for Increase in brain uptake after CycA administration at 5 min: 5 min post injection; for Bone activity levels from 5 min to 30 min (metabolic defluorination): normal rats; for Blood CycA:No Rx / Bone CycA:No Rx / Fat CycA:No Rx / Kidney CycA:No Rx / Liver CycA:No Rx / Lung CycA:No Rx / Muscle CycA:No Rx / Total brain CycA:No Rx: ratio of tracer uptake in CycA versus control group 30 min post injection
[1] = CycA pretreated versus control rats
[2] = control rats, i.v., 5 min post-injection

COc1ccccc1N1CCN(CCCCNC(=O)c2ccc(CC[18F])cc2)CC1 [[^18F]7, 4-(2-[^18F]-fluoroethyl)-N-(4-(4-(2-methoxyphenyl)piperazin-1-yl)butyl)benzamide]
Blood %ID/gram, 5 min CycA (5 min post-injection): 0.156 ± 0.033 %ID/gram | Bone %ID/gram, 5 min CycA (5 min post-injection): 0.232 ± 0.015 %ID/gram | Fat %ID/gram, 5 min CycA (5 min post-injection): 0.062 ± 0.017 %ID/gram | Kidney %ID/gram, 5 min CycA (5 min post-injection): 1.782 ± 0.242 %ID/gram | Liver %ID/gram, 5 min CycA (5 min post-injection): 1.790 ± 0.286 %ID/gram | Lung %ID/gram, 5 min CycA (5 min post-injection): 1.423 ± 0.262 %ID/gram | Muscle %ID/gram, 5 min CycA (5 min post-injection): 0.158 ± 0.055 %ID/gram | Total brain %ID/gram, 5 min CycA (5 min post-injection): 0.421 ± 0.115 %ID/gram | Blood %ID/gram, 30 min CycA: 0.178 ± 0.018 %ID/gram | Bone %ID/gram, 30 min CycA: 0.168 ± 0.016 %ID/gram | Fat %ID/gram, 30 min CycA: 0.069 ± 0.011 %ID/gram | Kidney %ID/gram, 30 min CycA: 0.898 ± 0.076 %ID/gram | Liver %ID/gram, 30 min CycA: 1.870 ± 0.184 %ID/gram | Lung %ID/gram, 30 min CycA: 0.563 ± 0.016 %ID/gram | Muscle %ID/gram, 30 min CycA: 0.147 ± 0.006 %ID/gram | Total brain %ID/gram, 30 min CycA: 0.271 ± 0.068 %ID/gram | Increase in brain uptake after CycA administration at 5 min [1]: 6.3 fold | Increase in brain uptake after CycA administration at 30 min (CycA pretreated versus control rats, 30 min post injection): 2.7 fold | Blood %ID/gram, 5 min No Rx [2]: 0.133 ± 0.018 %ID/gram | Bone %ID/gram, 5 min No Rx [2]: 0.243 ± 0.041 %ID/gram | Fat %ID/gram, 5 min No Rx [2]: 0.084 ± 0.036 %ID/gram | Kidney %ID/gram, 5 min No Rx [2]: 1.582 ± 0.293 %ID/gram | Liver %ID/gram, 5 min No Rx [2]: 2.035 ± 0.578 %ID/gram | Lung %ID/gram, 5 min No Rx [2]: 1.182 ± 0.086 %ID/gram | Muscle %ID/gram, 5 min No Rx [2]: 0.107 ± 0.017 %ID/gram | Blood %ID/gram, 30 min No Rx (control rats, i.v.): 0.167 ± 0.018 %ID/gram | Bone %ID/gram, 30 min No Rx (control rats, i.v.): 0.164 ± 0.018 %ID/gram | Fat %ID/gram, 30 min No Rx (control rats, i.v.): 0.086 ± 0.013 %ID/gram | Kidney %ID/gram, 30 min No Rx (control rats, i.v.): 0.952 ± 0.100 %ID/gram | Liver %ID/gram, 30 min No Rx (control rats, i.v.): 2.169 ± 0.113 %ID/gram | Lung %ID/gram, 30 min No Rx (control rats, i.v.): 0.668 ± 0.057 %ID/gram | Muscle %ID/gram, 30 min No Rx (control rats, i.v.): 0.143 ± 0.011 %ID/gram | Total brain %ID/gram, 30 min No Rx (control rats, i.v.): 0.098 ± 0.012 %ID/gram | Bone activity levels from 5 min to 30 min (metabolic defluorination): No accumulation | Blood CycA:No Rx: 1.06 | Bone CycA:No Rx: 1.02 | Fat CycA:No Rx: 0.81 | Kidney CycA:No Rx: 0.94 | Liver CycA:No Rx: 0.86 ^e | Lung CycA:No Rx: 0.84 ^d | Muscle CycA:No Rx: 1.03 | Total brain CycA:No Rx: 2.77 ^f

CN(C)c1ccc(C(=O)NCCCCN2CCN(c3ccccc3OCC[18F])CC2)cc1 [[^18F]8, 4-(dimethylamino)-N-(4-(4-(2-(2-[^18F]fluoroethoxy)phenyl)piperazin-1-yl)butyl)benzamide]
Blood %ID/gram, 5 min CycA (5 min post-injection): 0.109 ± 0.009 %ID/gram | Bone %ID/gram, 5 min CycA (5 min post-injection): 0.288 ± 0.008 %ID/gram | Fat %ID/gram, 5 min CycA (5 min post-injection): 0.116 ± 0.004 %ID/gram | Kidney %ID/gram, 5 min CycA (5 min post-injection): 2.235 ± 0.175 %ID/gram | Liver %ID/gram, 5 min CycA (5 min post-injection): 1.770 ± 0.584 %ID/gram | Lung %ID/gram, 5 min CycA (5 min post-injection): 1.893 ± 0.158 %ID/gram | Muscle %ID/gram, 5 min CycA (5 min post-injection): 0.184 ± 0.014 %ID/gram | Total brain %ID/gram, 5 min CycA (5 min post-injection): 0.895 ± 0.063 %ID/gram | Blood %ID/gram, 30 min CycA: 0.062 ± 0.018 %ID/gram | Bone %ID/gram, 30 min CycA: 0.599 ± 0.152 %ID/gram | Fat %ID/gram, 30 min CycA: 0.115 ± 0.030 %ID/gram | Kidney %ID/gram, 30 min CycA: 2.548 ± 0.490 %ID/gram | Liver %ID/gram, 30 min CycA: 2.431 ± 0.365 %ID/gram | Lung %ID/gram, 30 min CycA: 1.154 ± 0.102 %ID/gram | Muscle %ID/gram, 30 min CycA: 0.154 ± 0.038 %ID/gram | Total brain %ID/gram, 30 min CycA: 0.970 ± 0.077 %ID/gram | Increase in brain uptake after CycA administration at 5 min [1]: 5.0 fold | Blood %ID/gram, 5 min No Rx [2]: 0.079 ± 0.006 %ID/gram | Bone %ID/gram, 5 min No Rx [2]: 0.490 ± 0.033 %ID/gram | Fat %ID/gram, 5 min No Rx [2]: 0.101 ± 0.046 %ID/gram | Kidney %ID/gram, 5 min No Rx [2]: 2.939 ± 0.544 %ID/gram | Liver %ID/gram, 5 min No Rx [2]: 2.124 ± 0.113 %ID/gram | Lung %ID/gram, 5 min No Rx [2]: 2.432 ± 0.211 %ID/gram | Muscle %ID/gram, 5 min No Rx [2]: 0.099 ± 0.007 %ID/gram | Total brain %ID/gram, 5 min No Rx [2]: 0.178 ± 0.030 %ID/gram | Blood %ID/gram, 30 min No Rx (control rats, i.v.): 0.046 ± 0.008 %ID/gram | Bone %ID/gram, 30 min No Rx (control rats, i.v.): 0.882 ± 0.153 %ID/gram | Fat %ID/gram, 30 min No Rx (control rats, i.v.): 0.095 ± 0.017 %ID/gram | Kidney %ID/gram, 30 min No Rx (control rats, i.v.): 2.710 ± 0.235 %ID/gram | Liver %ID/gram, 30 min No Rx (control rats, i.v.): 2.134 ± 0.313 %ID/gram | Lung %ID/gram, 30 min No Rx (control rats, i.v.): 1.553 ± 0.179 %ID/gram | Muscle %ID/gram, 30 min No Rx (control rats, i.v.): 0.111 ± 0.006 %ID/gram | Total brain %ID/gram, 30 min No Rx (control rats, i.v.): 0.180 ± 0.006 %ID/gram | Bone activity levels from 5 min to 30 min (metabolic defluorination): two-fold increase | Blood CycA:No Rx: 1.35 | Bone CycA:No Rx: 0.68 | Fat CycA:No Rx: 1.20 | Kidney CycA:No Rx: 0.94 | Liver CycA:No Rx: 1.14 | Lung CycA:No Rx: 0.74 | Muscle CycA:No Rx: 1.38 | Total brain CycA:No Rx: 5.38 ^g
